Measured values as given in the NIST ThermoML archive (doi:10.1016/j.jct.2017.07.019).
± gives the expanded uncertainty stated by the source.

Details: Liquid, Ebulliometric method (Recirculating still)

## Cc1ccc(C)cc1 [1,4-dimethylbenzene]
411.45 K
  vapor or sublimation pressure: 101.3 ± 0.7 kPa

## OCC(F)(F)C(F)F [2,2,3,3-tetrafluoro-1-propanol]
382.15 K
  vapor or sublimation pressure: 101.3 ± 0.6 kPa

## ClC(Cl)Cl [trichloromethane]
334.35 K
  vapor or sublimation pressure: 101.3 ± 0.7 kPa

## O [water]
373.05 K
  vapor or sublimation pressure: 101.3 ± 0.6 kPa
